Experimental data: US20120214760A1, “TREATMENT OF URINARY TRACT INFECTIONS WITH ANTIBACTERIAL AMINOGLYCOSIDE COMPOUNDS” (Achaogen, Inc., priority 2009, published 2012)
Values after ≈ are worked out from the molar mass of the structure shown. Like-named read-outs stand apart in the source and are kept apart here.

Assays:
Type in all cases: cell-based
[1] = system: E. coli ATCC 25922 (AECO001); assay: MIC, CLSI broth microdilution; settings: for MIC AECO001: Table 3; for MIC: Escherichia coli
Summary of the method: (§1)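 Test compounds were diluted two-fold at 2× strength in Mueller Hinton Broth, then combined 1:1 with saline-suspended bacteria from an overnight agar colony to reach 5×10^5 CFU/mL. Incubation followed at 35° C. for 20 hours in ambient air, per CLSI reference methods.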

[2] = system: S. marcescens ASMA003, ANT(2″) + AAC(6′); assay: MIC, aminoglycoside resistant strain; settings: Table 3
Description: (§2) Minimum inhibitory concentrations (MIC) were determined by reference Clinical and Laboratory Standards Institute (CLSI) broth microdilution methods per M7-A7 [2006]. Quality control ranges utilizing E. coli ATCC 25922, P. aeruginosa ATCC 27853 and S. aureus ATCC 29213, and interpretive criteria for comparator agents were as published in CLSI M100-S17 [2007]. Briefly, serial two-fold dilutions of the test compounds were prepared at 2× concentration in Mueller Hinton Broth. The compound dilutions were mixed in 96-well assay plates in a 1:1 ratio with bacterial inoculum. The inoculum was prepared by suspension of a colony from an agar plate that was prepared the previous day. Bacteria were suspended in sterile saline and added to each assay plate to obtain a final concentration of 5×10^5 CFU/mL. The plates were incubated at 35° C. for 20 hours in ambient air.
(§3) These MIC assays were conducted following the same protocol as set forth in Example 110. As shown, substituted sisomicin derivatives with groups other than methyl at the 6′-position have improved activity against strains expressing the AAC6′-modifying enzymes.

[3] = system: E. coli AECO040, AAC(6′)-I; assay: MIC, aminoglycoside resistant strain; settings: Table 3
Description: as §2, §3

[4] = system: A. calcoaceticus AACA005, AAC(6′)-I; assay: MIC, aminoglycoside resistant strain; settings: Table 3
Description: as §2, §3

[5] = system: P. aeruginosa ATCC 27853 (APAE001); assay: MIC, CLSI broth microdilution; settings: Pseudomonas aeruginosa
Summary of the method: as §1

[6] = ATCC25922, read-out: MIC AECO001, Table 1, AECO001 is ATCC25922
[7] = ATCC27853, read-out: MIC APAE001, Table 1, APAE001 is ATCC27853

CN[C@@H]1[C@@H](O)[C@@H](O[C@@H]2[C@@H](O)[C@H](O[C@H]3OC(CN)=CC[C@H]3N)[C@@H](N)C[C@H]2N)OC[C@]1(C)O [Sisomicin, reference compound]
MIC AECO001 ([1]; ATCC25922): 0.5 µg/mL (≈ 1.12 µM) | MIC ASMA003 [2]: 8 µg/mL (≈ 17.9 µM) | MIC AECO040 [3]: 32 µg/mL (≈ 71.5 µM) | MIC AACA005 [4]: 32 µg/mL (≈ 71.5 µM)

CN[C@@H]1[C@@H](O)[C@@H](O[C@@H]2C(O)[C@H](O[C@H]3OC(CNCCCN)=CC[C@H]3N)[C@@H](N)C[C@H]2N)OC[C@]1(C)O (some centres unmarked) [Mono-substituted Compound 4, reference compound]
MIC AECO001 ([1]; ATCC25922): 2 µg/mL (≈ 3.96 µM) | MIC ASMA003 [2]: 1 µg/mL (≈ 1.98 µM) | MIC AECO040 [3]: 16 µg/mL (≈ 31.7 µM) | MIC AACA005 [4]: 1 µg/mL (≈ 1.98 µM)

CN[C@@H]1[C@@H](O)[C@@H](O[C@@H]2[C@@H](O)[C@H](O[C@H]3OC(CNCC4CC4)=CC[C@H]3N)[C@@H](N)C[C@H]2NC(=O)[C@@H](O)CCN)OC[C@]1(C)O [Example 18, 6′-(Methyl-cyclopropyl)-1-(4-amino-2(S)-hydroxy-butyryl)-sisomicin]
MIC [1, 6]: < 1 µg/mL | MIC AECO001 ([1]; ATCC25922): 1 µg/mL (≈ 1.66 µM) | MIC [5, 7]: 1 to 16 µg/mL (≈ 1.66 to 26.5 µM) | MIC ASMA003 [2]: 4 µg/mL (≈ 6.64 µM) | MIC AECO040 [3]: 0.25 µg/mL (≈ 0.415 µM) | MIC AACA005 [4]: 2 µg/mL (≈ 3.32 µM)

CN[C@@H]1[C@@H](O)[C@@H](O[C@@H]2[C@@H](O)[C@H](O[C@H]3OC(CNCCCN)=CC[C@H]3N)[C@@H](N)C[C@H]2NC(=O)[C@@H](O)CN)OC[C@]1(C)O [Example 17, 6′-(3-Amino-propyl)-1-(3-amino-2(S)-hydroxy-propionyl)-sisomicin]
MIC ([1]; ATCC25922, Table 2, read-out: MIC E. coli): < 1 µg/mL | MIC ([1]; Table 1, AECO001 is ATCC25922, read-out: MIC AECO001): < 1 µg/mL | MIC AECO001 ([1]; ATCC25922): 1 µg/mL (≈ 1.69 µM) | MIC ([5]; ATCC27853, Table 2, read-out: MIC P. aeruginosa): 1 to 16 µg/mL (≈ 1.69 to 27 µM) | MIC ASMA003 [2]: 2 µg/mL (≈ 3.38 µM) | MIC AECO040 [3]: 0.5 µg/mL (≈ 0.845 µM) | MIC AACA005 [4]: 2 µg/mL (≈ 3.38 µM)

CN[C@@H]1[C@@H](O)[C@@H](O[C@@H]2[C@@H](O)[C@H](O[C@H]3OC(CN)=CC[C@H]3NCC3CCCN3)[C@@H](N)C[C@H]2NC(=O)[C@@H](O)CCN)OC[C@]1(C)O (stereo partly drawn) [Example 85, 2′-(Methyl-pyrrolidin-2-yl)-1-(4-amino-2(S)-hydroxy-butyryl)-sisomicin]
MIC [1, 6]: < 1 µg/mL | MIC [5, 7]: 1 to 16 µg/mL (≈ 1.58 to 25.3 µM)

CN[C@@H]1[C@@H](O)[C@@H](O[C@@H]2[C@@H](O)[C@H](O[C@H]3OC(CNCC4(N)CCC4)=CC[C@H]3N)[C@@H](N)C[C@H]2NC(=O)[C@@H](O)CN)OC[C@]1(C)O [Example 56, 6′-(Methyl-1-amino-cyclobutyl)-1-(3-amino-2(S)-hydroxy-propionyl)-sisomicin]
MIC [1, 6]: < 1 µg/mL | MIC [5, 7]: > 16 µg/mL

CN[C@@H]1[C@@H](O)[C@@H](O[C@@H]2[C@@H](O)[C@H](O[C@H]3OC(CNCC(O)CCN)=CC[C@H]3N)[C@@H](N)C[C@H]2NC(=O)C2(O)CCNC2)OC[C@]1(C)O (some centres unmarked) [Example 35]
MIC [1, 6]: < 1 µg/mL | MIC [5, 7]: 1 to 16 µg/mL (≈ 1.54 to 24.7 µM)

CN[C@@H]1[C@@H](O)[C@@H](O[C@@H]2[C@@H](O)[C@H](O[C@H]3OC(CNCCCN)=CC[C@H]3N)[C@@H](N)C[C@H]2NC(=O)[C@H](O)CCN)OC[C@]1(C)O [Example 6, 6′-(3-Amino-propyl)-1-(4-amino-2(R)-hydroxy-butyryl)-sisomicin]
MIC [1, 6]: 1 to 16 µg/mL (≈ 1.65 to 26.4 µM) | MIC [5, 7]: 1 to 16 µg/mL (≈ 1.65 to 26.4 µM)

CN[C@@H]1[C@@H](O)[C@@H](O[C@@H]2[C@@H](O)[C@H](O[C@H]3OC(CNCCCC(O)CN)=CC[C@H]3N)[C@@H](N)C[C@H]2NC(=O)[C@@H](O)CN)OC[C@]1(C)O (stereo partly drawn) [Example 80, 6′-(4-Hydroxy-5-amino-pentyl)-1-(3-amino-2(S)-hydroxy-propionyl)-sisomicin]
MIC [1, 6]: < 1 µg/mL | MIC [5, 7]: < 1 µg/mL

CN[C@@H]1[C@@H](O)[C@@H](O[C@@H]2[C@@H](O)[C@H](O[C@H]3OC(CNC(=O)C(O)CN)=CC[C@H]3N)[C@@H](N)C[C@H]2NC(=O)[C@@H](O)CN)OC[C@]1(C)O (stereo partly drawn) [Example 20, 6′-(3-Amino-2-hydroxy-propionyl)-1-(3-amino-2(S)-hydroxy-propionyl)-sisomicin]
MIC [1, 6]: > 16 µg/mL | MIC [5, 7]: > 16 µg/mL

CN[C@@H]1[C@@H](O)[C@@H](O[C@@H]2[C@@H](O)[C@H](O[C@H]3OC(CNCCCN)=CC[C@H]3N)[C@@H](N)C[C@H]2NS(=O)(=O)CCN)OC[C@]1(C)O [Example 26, 6′-(3-Amino-propyl)-1-(2-amino-ethylsulfonamide)-sisomicin]
MIC [1, 6]: 1 to 16 µg/mL (≈ 1.63 to 26.2 µM) | MIC [5, 7]: 1 to 16 µg/mL (≈ 1.63 to 26.2 µM)
